Laboratory results taken from ChEMBL document CHEMBL1141342, “Cytotoxic C47-polyacetylene carboxylic acids from a marine sponge Pertrosia sp” (J Nat Prod, 2007).
Converted amounts (≈) assume the structure as drawn.

Test system: P388
Assay: Cytotoxicity against mouse P388 cells
Assay type: functional, cell-based

SMILES	IC50 [µg/mL]
C#C[C@@H](O)/C=C/CCCCCCC#C[C@H](O)C#C/C=C/CC/C=C\CCCC/C=C\CCCCCCCCCCCCCC/C=C\C#CC(=O)O [PETROFORMYNIC ACID B]	0.4 (≈ 0.574 µM)
C#C[C@@H](O)/C=C/CCCCCCC#C[C@H](O)C#C/C=C/CC/C=C\CCCC/C=C\CCCCCCCCCCCCCCCCC#CC(=O)O [PETROFORMYNIC ACID C]	0.4 (≈ 0.572 µM)
